{
  "source": "paper PMC3025571",
  "about": "(Nucleic Acids Research, 2010)",
  "target": "human FEN1 (Homo sapiens, UniProt P39748)",
  "sequence (P39748 whole entry)": "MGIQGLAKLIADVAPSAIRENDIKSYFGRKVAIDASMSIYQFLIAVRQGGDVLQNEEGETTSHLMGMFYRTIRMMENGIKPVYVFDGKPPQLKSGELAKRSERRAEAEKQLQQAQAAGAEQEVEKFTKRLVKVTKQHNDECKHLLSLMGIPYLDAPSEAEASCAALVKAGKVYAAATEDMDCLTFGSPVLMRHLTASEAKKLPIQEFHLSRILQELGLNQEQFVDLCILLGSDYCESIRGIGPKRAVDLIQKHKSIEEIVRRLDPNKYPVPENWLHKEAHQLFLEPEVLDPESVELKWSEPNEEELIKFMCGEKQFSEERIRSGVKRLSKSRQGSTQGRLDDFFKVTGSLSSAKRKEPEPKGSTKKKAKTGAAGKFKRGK",
  "assay": "Kinetic fluorogenic",
  "type": "biochemical",
  "note": "Where two headings read alike, the source gives them in different places.",
  "data": [
    {"smiles": "C[S+](C)[O-]", "note": "[DMSO, Dimethyl sulfoxide]", "values": [
      {"measurement": "inhibition of FEN1", "setting": "concentrations up to 0.67%, data not shown, assay format not specified", "result": "not inhibit"}
    ]},
    {"smiles": "O=C(O)c1cc[c]([Sb](=[O])([OH])[OH])cc1[N+](=O)[O-]", "note": "[NSC-13755]", "values": [
      {"measurement": "IC50", "setting": "read-out: average IC50, average of the fluorogenic and AlphaScreen assays", "result": 930, "unit": "nM"}
    ]},
    {"smiles": "O=C(O)C1=CC(=C(c2ccc(O)c(C(=O)O)c2)c2ccc(O)c(C(=O)O)c2)C=CC1=O", "note": "[ATA, aurintricarboxylic acid]", "values": [
      {"measurement": "IC50", "setting": "average IC50, average of the fluorogenic and AlphaScreen assays", "result": 590, "unit": "nM"}
    ]}
  ]
}
